Laboratory results reported in PubChem BioAssay AID1963862 (Molecular Pharmacology Branch, DTP, NCI, 2024).
pIC50: −log10 of the molar value.

Tested on: KRAS patient-derived spheroids with HUVEC/MSC, viability
Assay: Anticancer human tumor 941728-121-R-J1-PDC patient-derived lung adenocarcinoma cell line growth inhibition [KRAS2]
Conditions: for pIC50: curve of first compound; for viability, T/C: stronger effect = lower value
In short: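 KRAS-mutant tumor cells were grown as spheroids with HUVEC endothelial cells and human MSCs as stroma. Targeted agents were tested alone and with KRAS pathway inhibitors. Doses started at or near clinical Cmax, or 10 microM, descending half-log.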

[1] = second compound 0.1 µM, first compound 0.0316 µM
[2] = second compound 0.1 µM, first compound 0.1 µM
[3] = second compound 0.1 µM, first compound 0.316 µM
[4] = second compound 0.1 µM, first compound 1 µM
[5] = second compound 0.1 µM, first compound 3.16 µM
[6] = second compound 0.316 µM, first compound 0.0316 µM
[7] = second compound 0.316 µM, first compound 0.1 µM
[8] = second compound 0.316 µM, first compound 0.316 µM
[9] = second compound 0.316 µM, first compound 1 µM
[10] = second compound 0.316 µM, first compound 3.16 µM
[11] = second compound 1 µM, first compound 0.0316 µM
[12] = second compound 1 µM, first compound 0.1 µM
[13] = second compound 1 µM, first compound 0.316 µM
[14] = second compound 1 µM, first compound 1 µM
[15] = second compound 1 µM, first compound 3.16 µM
[16] = second compound 3.16 µM, first compound 0.0316 µM
[17] = second compound 3.16 µM, first compound 0.1 µM
[18] = second compound 3.16 µM, first compound 0.316 µM
[19] = second compound 3.16 µM, first compound 1 µM
[20] = second compound 3.16 µM, first compound 3.16 µM
[21] = second compound 10 µM, first compound 0.0316 µM
[22] = second compound 10 µM, first compound 0.1 µM
[23] = second compound 10 µM, first compound 0.316 µM
[24] = second compound 10 µM, first compound 1 µM
[25] = second compound 10 µM, first compound 3.16 µM
[26] = second compound 0.1 µM, first compound 0.01 µM
[27] = second compound 0.316 µM, first compound 0.01 µM
[28] = second compound 1 µM, first compound 0.01 µM
[29] = second compound 3.16 µM, first compound 0.01 µM
[30] = second compound 10 µM, first compound 0.01 µM
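Note: spheroids exposed to agents for seven days before readout.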

`CC1OCC2(CCN(c3cnc(Sc4ccnc(N)c4Cl)c(N)n3)CC2)C1N` (stereo not given) + CNCc1ccccc1-c1csc(C(C)Nc2nc(C)nc3cc(OC)c(OC)cc23)c1 was tested, and the pIC50 (second compound 0.1 µM) was over 7.50, the pIC50 (second compound 0.316 µM) was over 7.50 and the pIC50 (second compound 1 µM) was over 7.50. For the same compound, the pIC50 (second compound 3.16 µM) was over 7.50, the pIC50 (second compound 10 µM) was over 7.50 and the viability, T/C [1] was 49.5%. It also gave a viability, T/C [2] of 38.1%, a viability, T/C [3] of 38.1% and a viability, T/C [4] of 32.5%. It also gave a viability, T/C [5] of 35.3%, a viability, T/C (second compound 0.1 µM, first compound 10 µM) of 34% and a viability, T/C [6] of 41%. The viability, T/C [7] was 34.7%, the viability, T/C [8] was 31.2% and the viability, T/C [9] was 28.9%. The viability, T/C [10] was 30.2%, the viability, T/C (second compound 0.316 µM, first compound 10 µM) was 30.1% and the viability, T/C [11] was 37.6%. For the same compound, the viability, T/C [12] was 36.6%, the viability, T/C [13] was 28.2% and the viability, T/C [14] was 26.2%. The viability, T/C [15] was 20.9%, the viability, T/C (second compound 1 µM, first compound 10 µM) was 17.8% and the viability, T/C [16] was 5.49%. It also gave a viability, T/C [17] of 2.19%, a viability, T/C [18] of 2.26% and a viability, T/C [19] of 2.13%. For the same compound, the viability, T/C [20] was 0.72%, the viability, T/C (second compound 3.16 µM, first compound 10 µM) was 0.85% and the viability, T/C [21] was 0.11%. It also gave a viability, T/C [22] of 0.12%, a viability, T/C [23] of 0.4% and a viability, T/C [24] of 0.22%. The viability, T/C [25] was 1.25% and the viability, T/C (second compound 10 µM, first compound 10 µM) was 0.16%.
In the case of `CC(=O)Nc1cccc(-n2c(=O)n(C3CC3)c(=O)c3c(Nc4ccc(I)cc4F)n(C)c(=O)c(C)c32)c1` + COc1cc2nc(C)nc(NC(C)c3cc(N)cc(C(F)(F)F)c3)c2cc1OC1CCOC1, the pIC50 (second compound 0.1 µM) was 9.89, the pIC50 (second compound 0.316 µM) was over 10.00 and the pIC50 (second compound 1 µM) was over 10.00. For the same compound, the pIC50 (second compound 3.16 µM) was over 10.00, the pIC50 (second compound 10 µM) was over 10.00 and the viability, T/C (second compound 0.1 µM, first compound 0.0001 µM) was 51.3%. It also gave a viability, T/C (second compound 0.1 µM, first compound 0.000316 µM) of 47.6%, a viability, T/C (second compound 0.1 µM, first compound 0.001 µM) of 39.7% and a viability, T/C (second compound 0.1 µM, first compound 0.00316 µM) of 39.5%. It also gave a viability, T/C [26] of 39.4%, a viability, T/C [1] of 29.4% and a viability, T/C (second compound 0.316 µM, first compound 0.0001 µM) of 44.3%. For the same compound, the viability, T/C (second compound 0.316 µM, first compound 0.000316 µM) was 40.5%, the viability, T/C (second compound 0.316 µM, first compound 0.001 µM) was 40% and the viability, T/C (second compound 0.316 µM, first compound 0.00316 µM) was 35.8%. The viability, T/C [27] was 36.3%, the viability, T/C [6] was 29.9% and the viability, T/C (second compound 1 µM, first compound 0.0001 µM) was 41.1%. It also gave a viability, T/C (second compound 1 µM, first compound 0.000316 µM) of 40.8%, a viability, T/C (second compound 1 µM, first compound 0.001 µM) of 38.1% and a viability, T/C (second compound 1 µM, first compound 0.00316 µM) of 30.6%. It also gave a viability, T/C [28] of 31.1%, a viability, T/C [11] of 25.7% and a viability, T/C (second compound 3.16 µM, first compound 0.0001 µM) of 32%. The viability, T/C (second compound 3.16 µM, first compound 0.000316 µM) was 29%, the viability, T/C (second compound 3.16 µM, first compound 0.001 µM) was 24.6% and the viability, T/C (second compound 3.16 µM, first compound 0.00316 µM) was 18.8%. The viability, T/C [29] was 21.8%, the viability, T/C [16] was 17.7% and the viability, T/C (second compound 10 µM, first compound 0.0001 µM) was 6.11%. It also gave a viability, T/C (second compound 10 µM, first compound 0.000316 µM) of 3.95%, a viability, T/C (second compound 10 µM, first compound 0.001 µM) of 3.66% and a viability, T/C (second compound 10 µM, first compound 0.00316 µM) of 2.67%. The viability, T/C [30] was 2.71% and the viability, T/C [21] was 2.71%.
`CC(=O)OC12COC1CC(O)C1(C)C(=O)C(O)C3=C(C)C(OC(=O)C(O)C(NC(=O)OC(C)(C)C)c4ccccc4)CC(O)(C(OC(=O)c4ccccc4)C21)C3(C)C` (stereo not given) + COc1cc2nc(C)nc(NC(C)c3cc(N)cc(C(F)(F)F)c3)c2cc1OC1CCOC1 showed a pIC50 (second compound 0.1 µM) of over 8.00, a pIC50 (second compound 0.316 µM) of over 8.00 and a pIC50 (second compound 1 µM) of over 8.00. It also gave a pIC50 (second compound 3.16 µM) of over 8.00, a pIC50 (second compound 10 µM) of over 8.00 and a viability, T/C [26] of 37.4%. It also gave a viability, T/C [1] of 41.1%, a viability, T/C [2] of 41.4% and a viability, T/C [3] of 44.9%. For the same compound, the viability, T/C [4] was 41.9%, the viability, T/C [5] was 42.6% and the viability, T/C [27] was 38.2%. It also gave a viability, T/C [6] of 39.5%, a viability, T/C [7] of 36% and a viability, T/C [8] of 34.5%. For the same compound, the viability, T/C [9] was 36.9%, the viability, T/C [10] was 35.5% and the viability, T/C [28] was 35.8%. It also gave a viability, T/C [11] of 47.8%, a viability, T/C [12] of 49.6% and a viability, T/C [13] of 47.3%. It also gave a viability, T/C [14] of 48%, a viability, T/C [15] of 36.1% and a viability, T/C [29] of 33.5%. The viability, T/C [16] was 31.4%, the viability, T/C [17] was 32% and the viability, T/C [18] was 31.7%. For the same compound, the viability, T/C [19] was 32.7%, the viability, T/C [20] was 33.3% and the viability, T/C [30] was 31.2%. For the same compound, the viability, T/C [21] was 29.1%, the viability, T/C [22] was 30% and the viability, T/C [23] was 32.7%. The viability, T/C [24] was 36.2% and the viability, T/C [25] was 32.2%.
